Data on 11 compounds can be found in ChEMBL document CHEMBL1201862, “PubChem BioAssay data set” (2004).

What all share (assay): growth of human tumour cells (NCI), 48 h
Assay [1] relates to HCT-116.
In assay [2] the test system is TK-10.
For assay [3], the system named is SNB-75.
In assay [4] the test system is SK-MEL-2.
Assay [5] concerns IGROV-1.
For assay [6], the system named is RPMI-8226.
Assay [7] has as its system Hs-578T.
Assay [8] deals with UACC-62.
Assay [9] relates to SW-620.
The subject of assay [10] is SR.
The subject of assay [11] is MDA-MB-231.
Assay [12] relates to HOP-62.
Assay [13] has as its system PC-3.
Assay [14] concerns U-251.
Assay [15] concerns HT-29.
The test system of assay [16] is UO-31.
The test system of assay [17] is K562.
Assay [18] deals with NCI-H522.
Assay [19] has as its system A498.
Assay [20] concerns HL-60.

Structures are written as SMILES.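 Assay format: 96-well plates, 48-hour exposure. Here, GI50 denotes the concentration required for 50% inhibition of growth.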 Active and inactive are the calls of the source. Cut-off read from the data, not from the text of the source: active = GI50 up to about 1.1 µM and inactive = higher.

With `Cc1cccc2c1NC(=S)[C@@H]1CCCN1C2=O`, the GI50 is > 100 µM (inactive) in assay [1]; > 100 µM (inactive) in assay [2]; 54 µM (inactive) in [3]; > 100 µM (inactive) in [4]; > 100 µM (inactive) in [5]; > 100 µM (inactive) in [6]. Further, the GI50 in [7], in assay [8], in assay [9], in [10], in assay [11] and in assay [12] was > 100 µM (inactive) throughout. Further, the GI50 in [13], in assay [14], in [15], in assay [16], in assay [17] and in assay [18] was > 100 µM (inactive) each time. Moreover, the GI50 in [19] was > 100 µM (inactive).
Consider `CC(C)[Si](OCC/C=C/C1CCC(=O)C1C(O)C1CCCCC1)(C(C)C)C(C)C` (stereo not given), for which the GI50 in assay [1] is 14.7 µM (inactive); in assay [2], 17.9 µM (inactive); in assay [3], 15.2 µM (inactive); in assay [4] it was 12.9 µM (inactive); in assay [5], 15.1 µM (inactive); in assay [6], 13.7 µM (inactive). For the same compound, the GI50 was 18.1 µM (inactive) in assay [7]; 14.9 µM (inactive) in assay [8]; 16 µM (inactive) in assay [9]; 4.29 µM (inactive) in assay [10]; 18.8 µM (inactive) in [11]; 16.9 µM (inactive) in [12]. Also, the GI50 is 13.3 µM (inactive) in assay [13]; 15.8 µM (inactive) in assay [14]; 13.2 µM (inactive) in [15]; 16.6 µM (inactive) in [16]; 17.2 µM (inactive) in assay [17]; 12 µM (inactive) in [18]. The GI50 in assay [19] is 18.3 µM (inactive).
Consider `CC(C)(C)OC(=O)NC(Cc1ccc(OCc2ccccc2)cn1)C(N)=O` (stereo not given), for which the GI50 in assay [1], in assay [2], in assay [3], in [20], in [5] and in assay [6] was > 100 µM (inactive) in each case. The GI50 in assay [7], in assay [9], in assay [10], in assay [11], in [12] and in assay [13] was > 100 µM (inactive) throughout. Besides, the GI50 in [14] is > 100 µM (inactive); in [15] it was > 100 µM (inactive); in assay [16], 82.6 µM (inactive); in assay [17], > 100 µM (inactive); in [18], 80 µM (inactive); in assay [19], > 100 µM (inactive).
For `CC1(C)C2CCC3CC(CCC#N)CCC3C21C#N` (stereo not given), the GI50 in assay [1], in assay [2], in [20], in assay [4], in assay [5] and in [6] was > 100 µM (inactive) throughout. For the same compound, the GI50 in assay [7], in [8], in assay [9], in [10], in assay [11] and in assay [12] was > 100 µM (inactive) in each case. The GI50 in [13], in [14], in assay [15], in [16], in assay [17] and in [18] was > 100 µM (inactive) in each case. For the same compound, the GI50 in assay [19] is > 100 µM (inactive).
`COc1cc(OC)c2c(=O)c(O)c(-c3ccc(OC)c(OC)c3)oc2c1`: the GI50 is 4.94 µM (inactive) in [1]; 11.2 µM (inactive) in assay [2]; 7.59 µM (inactive) in [3]; 3.48 µM (inactive) in assay [20]; 4.86 µM (inactive) in assay [5]; 4.72 µM (inactive) in assay [6]. In addition, the GI50 in assay [7] is 17.3 µM (inactive); in [8], 3.43 µM (inactive); in assay [9] it was 7.8 µM (inactive); in assay [10] it was 3.33 µM (inactive); in assay [11] it was 5.28 µM (inactive); in [12], 3.99 µM (inactive). Besides, the GI50 in assay [13] was 3.92 µM (inactive); in assay [14], 4.94 µM (inactive); in [15] it was 28.2 µM (inactive); in [16] it was 8.85 µM (inactive); in [17], 5.25 µM (inactive); in assay [18], 4.23 µM (inactive). For the same compound, the GI50 in [19] is 10.3 µM (inactive).
As to `COc1cc(C2SCC(=O)N2c2cccc(Cl)c2)cc(OC)c1OC` (stereo not given), the GI50 is 58.9 µM (inactive) in assay [1]; > 100 µM (inactive) in assay [2]; 35.3 µM (inactive) in [20]; > 100 µM (inactive) in [4]; 65.9 µM (inactive) in assay [5]; 45.7 µM (inactive) in assay [6]. In addition, the GI50 is > 100 µM (inactive) in assay [7]; 11.3 µM (inactive) in assay [8]; > 100 µM (inactive) in assay [9]; 28.4 µM (inactive) in assay [10]; > 100 µM (inactive) in assay [11]; > 100 µM (inactive) in assay [13]. The GI50 in assay [14] is > 100 µM (inactive); in [15], > 100 µM (inactive); in assay [16], 58.2 µM (inactive); in [17], 36.1 µM (inactive); in assay [18] it was 21.2 µM (inactive); in assay [19], > 100 µM (inactive).
Regarding `CC1(C)C=C(/C=N/Nc2ccccc2)C(C#N)=C(O)C1(C#N)C#N`, the GI50 in assay [1] is > 100 µM (inactive); in assay [2], > 100 µM (inactive); in assay [3], > 100 µM (inactive); in assay [20] it was 41.9 µM (inactive); in [5] it was > 100 µM (inactive); in [6], 52.5 µM (inactive). The GI50 was > 100 µM (inactive) in [7]; > 100 µM (inactive) in [8]; > 100 µM (inactive) in assay [9]; 31.3 µM (inactive) in assay [10]; > 100 µM (inactive) in [11]; > 100 µM (inactive) in assay [12]. Besides, the GI50 was 36.7 µM (inactive) in assay [13]; 93.8 µM (inactive) in assay [15]; > 100 µM (inactive) in [16]; 56.5 µM (inactive) in [17]; > 100 µM (inactive) in [18]; 48.6 µM (inactive) in assay [19].
Consider `CN(C)c1c(Cl)c(=O)oc2c1ccc1nc(-c3ccccc3)sc12`, for which the GI50 in assay [1], in assay [2], in assay [20], in assay [5], in assay [6] and in [7] was > 100 µM (inactive) in each case. Besides, the GI50 in assay [8] was 64.6 µM (inactive); in assay [9], > 100 µM (inactive); in assay [10], > 100 µM (inactive); in assay [11], > 100 µM (inactive); in [12], 98.9 µM (inactive); in assay [13] it was > 100 µM (inactive). Moreover, the GI50 in assay [14], in assay [15], in [16], in [17], in assay [18] and in assay [19] was > 100 µM (inactive) each time.
Consider `O=C(O)c1cccc(OCCOc2cccc(C(=O)O)c2[N+](=O)[O-])c1[N+](=O)[O-]`, for which the GI50 in assay [1], in assay [2], in assay [3], in [20], in assay [4] and in [5] was > 100 µM (inactive) each time. Moreover, the GI50 in [6], in [7], in [8], in assay [9], in assay [10] and in [11] was > 100 µM (inactive) throughout. Also, the GI50 in assay [12], in assay [13], in assay [14], in assay [15], in assay [16] and in assay [18] was > 100 µM (inactive) throughout. Also, the GI50 in assay [19] was > 100 µM (inactive).
As to `C[N+]1(C)CCc2cc(O)c(O)cc2C1Cc1ccc(O)c(O)c1` (stereo not given), the GI50 in [1] was 22.4 µM (inactive); in [2], 94.8 µM (inactive); in assay [20] it was 18.3 µM (inactive); in assay [4] it was 1.11 µM (active); in assay [5], 28 µM (inactive); in assay [6], 22.2 µM (inactive). Also, the GI50 in [7] is 86.9 µM (inactive); in [8], 29.9 µM (inactive); in assay [9], 28.4 µM (inactive); in [10], 34.8 µM (inactive); in assay [11], 31.1 µM (inactive); in assay [12], > 100 µM (inactive). Also, the GI50 was > 100 µM (inactive) in assay [13]; > 100 µM (inactive) in assay [14]; 34.8 µM (inactive) in assay [15]; 92 µM (inactive) in [16]; 34 µM (inactive) in assay [17]; 22.5 µM (inactive) in assay [18]. Moreover, the GI50 in assay [19] was > 100 µM (inactive).
Turning to `Cc1c(C)c(S(=O)(=O)N(CCCN)OCCCN)c(C)c2c1OC(C)(C)CC2`, the GI50 in assay [1] was 16.5 µM (inactive); in assay [2] it was 14.7 µM (inactive); in assay [3], 11.3 µM (inactive); in assay [4], 17.5 µM (inactive); in assay [5], 7.78 µM (inactive); in assay [6], 17.6 µM (inactive). The GI50 was 14.8 µM (inactive) in assay [7]; 14.8 µM (inactive) in [8]; 15.1 µM (inactive) in [9]; 17.5 µM (inactive) in assay [10]; 4.63 µM (inactive) in assay [11]; 13.3 µM (inactive) in assay [12]. Further, the GI50 is 12 µM (inactive) in assay [13]; 11.9 µM (inactive) in assay [14]; 15.1 µM (inactive) in assay [15]; 17.5 µM (inactive) in assay [16]; 15.2 µM (inactive) in assay [17]; 14 µM (inactive) in [18]. The GI50 in [19] is 12.9 µM (inactive).
